Read-outs that look alike come from different tables or passages of the source.
Legend:
ERβ [1] = target: T1, ERβ (Homo sapiens, UniProt Q92731); assay: ERβ luciferase reporter (pERE2TATA-LUC) transactivation assay in transfected HEK293 cells; assay type: cell-based; design: expressed in transfected cells; host or cells: HEK293; details: for Emax at 10 µM: HEK293, 24 h; for ERβ in vitro activity (receptor activation relative to 10 nM E2): Table 2, previously published compounds, test compound 10 μM
T1 sequence (Q92731 whole entry): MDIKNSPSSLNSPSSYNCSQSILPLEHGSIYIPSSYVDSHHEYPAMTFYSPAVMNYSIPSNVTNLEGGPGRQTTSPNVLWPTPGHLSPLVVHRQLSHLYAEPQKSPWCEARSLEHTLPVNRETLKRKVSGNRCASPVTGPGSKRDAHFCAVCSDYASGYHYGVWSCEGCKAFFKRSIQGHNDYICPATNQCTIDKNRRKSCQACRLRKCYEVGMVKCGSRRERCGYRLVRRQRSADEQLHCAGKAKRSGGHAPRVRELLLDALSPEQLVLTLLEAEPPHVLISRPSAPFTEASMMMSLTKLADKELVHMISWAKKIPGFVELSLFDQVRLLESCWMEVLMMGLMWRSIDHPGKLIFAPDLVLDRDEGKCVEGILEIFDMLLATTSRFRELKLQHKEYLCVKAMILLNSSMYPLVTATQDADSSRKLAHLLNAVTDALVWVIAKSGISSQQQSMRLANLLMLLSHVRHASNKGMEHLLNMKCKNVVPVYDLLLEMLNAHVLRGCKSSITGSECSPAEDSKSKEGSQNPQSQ
Procedure: (§1) All other reagents were of reagent grade from Sigma or Fluka. One day before transfection, HEK293 cells were seeded in 48-well plates (70×10^3 cells per well) in phenol-free Dulbecco's modified Eagle medium supplemented with 5% delipidated fetal bovine serum (Sigma) and antibiotics. After a medium change, the cells were transfected for 4 hours with 5 ng ERα or ERβ expression vector, 75 ng reporter plasmid pERE2TATA-LUC and 20 ng control plasmid pCMVβ by the calcium phosphate method. After transfection, the cells received fresh medium containing either vehicle (0.1% v/v) or test compound (10 μM). After 24 hours, the cells were washed, lysed and luciferase and β-galactosidase activities were determined from 20 μl of lysates with the Victor^2TM reader (PerkinElmer Wallac, Turku, Finland). […] The data are means±SEM of at least three independent transfections.

ERα [2] = target: T2, ERα (Homo sapiens, UniProt P03372); assay: Competitive binding assay against [6,7-3H(N)]estradiol in transiently transfected COS-1 cells, ERα; details: for IC50: ERα IC50 (median inhibition concentration), competition against labeled E2, COS-1 cells with pSG5-hERα, 2 hours at 37° C.; for ERα RBA (relative binding affinity): in comparison to E2 = 100
T2 sequence (P03372 1-595): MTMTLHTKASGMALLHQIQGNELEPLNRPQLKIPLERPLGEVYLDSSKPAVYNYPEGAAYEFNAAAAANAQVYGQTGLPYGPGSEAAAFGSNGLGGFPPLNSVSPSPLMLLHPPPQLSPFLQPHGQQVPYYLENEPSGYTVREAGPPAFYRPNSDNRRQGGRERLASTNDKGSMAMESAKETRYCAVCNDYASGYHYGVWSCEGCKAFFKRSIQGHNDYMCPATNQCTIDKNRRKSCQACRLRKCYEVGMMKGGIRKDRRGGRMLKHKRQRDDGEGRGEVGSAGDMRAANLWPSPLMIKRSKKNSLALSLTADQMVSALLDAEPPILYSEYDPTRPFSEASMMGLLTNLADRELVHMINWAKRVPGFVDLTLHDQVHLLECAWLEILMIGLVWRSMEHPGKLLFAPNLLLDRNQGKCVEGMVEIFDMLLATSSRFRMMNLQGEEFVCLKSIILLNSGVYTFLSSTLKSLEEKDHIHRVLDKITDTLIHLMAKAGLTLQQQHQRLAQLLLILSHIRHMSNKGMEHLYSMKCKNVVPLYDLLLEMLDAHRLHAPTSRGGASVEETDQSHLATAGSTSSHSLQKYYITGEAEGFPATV
Procedure: (§2) Relative binding affinities (RBA) were measured by a competitive assay against [6, 7-^3H(N)]estradiol (PerkinElmer) in transsiently transfected COS-1 cells. […] After 2 hours of incubation at 37° C. the medium was removed. The cells were removed from the wells to 150 μl of 1× phosphate buffered saline (PBS), transferred to Eppendorf tubes and centrifuged at 4° C. using 4000 g for 5 min, and then washed twice with 150 μl of PBS. The cell pellets were dissolved to 50 μl of 0.5M NaOH and incubated for 15 min at 56° C., after which the samples were transferred to liquid twinkle tubes and treated with 3 ml of OptiPhase HiSafe 3 twinkle solution (PerkinElmer).

ERα [3] = target: T2, ERα; assay: ERα luciferase reporter (pERE2TATA-LUC) transactivation assay in transfected HEK293 cells; assay type: cell-based; design: expressed in transfected cells; host or cells: HEK293; details: 24 hours; for ERα receptor activation relative to 10 nM E2 corresponding 100: Table 1, sample concentration 10 μM, mean of at least three independent transfections, SEM typically <15%; for ERα in vitro activity (receptor activation relative to 10 nM E2): Table 2, previously published compounds, test compound 10 μM
Procedure: as §1

ERβ [4] = target: T1, ERβ; assay: Competitive binding assay against [6,7-3H(N)]estradiol in transiently transfected COS-1 cells, ERβ; details: for IC50: ERβ IC50 (median inhibition concentration), competition against labeled E2, COS-1 cells with pSG5-hERβ, 2 hours at 37° C.; for ERβ RBA (relative binding affinity): in comparison to E2 = 100
Procedure: as §2

[5] = read-out: ERβ receptor activation relative to 10 nM E2 corresponding 100, Table 1, sample concentration 10 μM, mean of at least three independent transfections, SEM typically <15%
[6] = read-out: ERβ in vitro activity (receptor activation relative to 10 nM E2), Table 2, previously published compounds, test compound 10 μM

Structure (SMILES)	Emax at 10 µM (ERβ [1]; [5]) [%]	IC50 (ERα [2]) [µM]	ERα RBA (relative binding affinity) (ERα [2]) [%]	ERα receptor activation relative to 10 nM E2 corresponding 100 (ERα [3]) [%]	IC50 (ERβ [4]) [µM]	ERβ RBA (relative binding affinity) (ERβ [4]) [%]	ERα in vitro activity (receptor activation relative to 10 nM E2) (ERα [3]) [%]	Emax at 10 µM (ERβ [1]; [6]) [%]	also measured
O=C(CCCc1ccc(O)cc1)CC(O)c1ccccc1 (single isomer, unassigned) [Compound 34a, 1-Hydroxy-6-(4-hydroxy-phenyl)-1-phenyl-hexan-3-one]	170	0.0009	217.8	139.2	0.0034	57.65			
O=C(CCCc1ccc(O)cc1)CC(O)c1ccccc1 (single isomer, unassigned) [Compound 34b, 1-Hydroxy-6-(4-hydroxy-phenyl)-1-phenyl-hexan-3-one]		0.00213	92.02	140.0	0.0105	18.67			ERβ receptor activation relative to 10 nM E2 corresponding 100 (ERβ [1]; Table 1, sample concentration 10 μM, 24 hours, mean of at least three independent transfections, SEM typically <15%): 155.3%
O=C(CCCc1ccccc1)CC(O)c1ccccc1 (single isomer, unassigned) [Compound 59a, 1-Hydroxy-1,6-diphenyl-hexan-3-one]		1.7	0.115		1.09	0.180	91.4		ERβ in vitro activity (receptor activation relative to 10 nM E2) (ERβ [1]; 24 hours): 147.3%
O=C(CCCc1ccccc1)CC(O)c1ccccc1 (single isomer, unassigned) [Compound 59b, 1-Hydroxy-1,6-diphenyl-hexan-3-one]		2.17	0.090		11	0.018	59.3		ERβ in vitro activity (receptor activation relative to 10 nM E2) (ERβ [1]; 24 hours): 28.2%
O=C(CCc1ccc(O)cc1)CC(O)Cc1ccccc1 (stereo not shown) [Compound 31ab, 5-Hydroxy-1-(4-hydroxy-phenyl)-6-phenyl-hexan-3-one]	107	7.9	0.025	55.0	1.25	0.157			
CC(O)(CC(=O)CCCc1ccccc1)c1ccccc1 (stereo not shown) [Compound 36ab, 6-Hydroxy-1,6-diphenyl-heptan-4-one]	15.1	0.81	0.242	83.3	2.05	0.096			
O=C(CCCc1ccc(O)cc1)CC(O)Cc1ccccc1 (stereo not shown) [Compound 40ab, 2-Hydroxy-7-(4-hydroxy-phenyl)-1-phenyl-heptan-4-one]	82.3	0.105	1.867	105.2	1.08	0.181			
COC(CC(=O)CCc1ccccc1)Cc1ccccc1 (stereo not shown) [Compound 46ab, 5-Methoxy-1,6-diphenyl-hexan-3-one]	1.3			9.9					
COc1ccc(CC(CC(=O)CCc2ccccc2)OC)cc1 (stereo not shown) [Compound 47ab, 5-Methoxy-6-(4-methoxyphenyl)-1-phenyl-hexan-3-one]	4			28.5					
COC(CC(=O)CCc1ccccc1)Cc1ccc(F)cc1 (stereo not shown) [Compound 48ab, 5-Methoxy-6-(4-fluorophenyl)-1-phenyl-hexan-3-one]	11.2			33.1					
COC(CC(=O)CCc1ccccc1)Cc1cccc2ccccc12 (stereo not shown) [Compound 49ab, 5-Methoxy-6-naphthalen-1-yl-1-phenyl-hexan-3-one]	2			35.5					
COC(CC(=O)CCc1ccccc1)Cc1ccc2ccccc2c1 (stereo not shown) [Compound 50ab, 5-Methoxy-6-naphthalen-2-yl-1-phenyl-hexan-3-one]	12.4			30.4					
COC(CC(=O)CCCc1ccccc1)Cc1ccccc1 (stereo not shown) [Compound 51ab, 2-Methoxy-1,7-diphenyl-heptan-4-one]	30.4			24.5					
COC(CCc1ccccc1)CC(=O)CCCc1ccccc1 (stereo not shown) [Compound 52ab, 3-Methoxy-1,8-diphenyl-octan-5-one]	-14.6			3.1					
O=C(CC(O)Cc1ccccc1)c1ccccc1 (stereo not shown) [Compound 53ab, 3-Hydroxy-1,4-diphenyl-butan-1-one]							5.3	16.9	
O=C(Cc1ccccc1)CC(O)c1ccccc1 (stereo not shown) [Compound 55ab, 4-Hydroxy-1,4-diphenyl-butan-2-one]							0.8	1.6	
CC(O)(CC(=O)CCc1ccccc1)c1ccccc1 (stereo not shown) [Compound 57ab, 5-Hydroxy-1,5-diphenyl-hexan-3-one]							52.1	38.4	
O=C(CCc1ccccc1)CC(O)Cc1ccccc1 (stereo not shown) [Compound 58ab, 5-Hydroxy-1,6-diphenyl-hexan-3-one]							12.8	0.4	
CC(O)(CC(=O)CCCc1ccccc1)c1ccccc1 (stereo not shown) [Compound 60ab, 6-Hydroxy-1,6-diphenyl-heptan-4-one]							83.3	15.1	
COC(CC(=O)c1ccccc1)Cc1ccccc1 (stereo not shown) [Compound 61ab, 3-Methoxy-1,4-diphenyl-butan-1-one]							0.3	18.4	
COC(CCc1ccccc1)CC(=O)c1ccccc1 (stereo not shown) [Compound 62ab, 3-Methoxy-1,5-diphenyl-pentan-1-one]							38.1	28.8	

— US20100249243A1, “NOVEL BETA-HYDROXYKETONES AND BETA-ALKOXYKETONES WITH ESTROGENIC ACTIVITY” (priority 2007, published 2010)
